# Results from ChEMBL document CHEMBL1201862, “PubChem BioAssay data set” (2004).
# Active and inactive are the calls of the source.
# Experiments:
# [1] = system: BJ; assay: BJ-TERT fibroblast viability loss – cell-based, RAS-independent, luminescence, dose response (AID 1933); format: functional; conditions: Homo sapiens
# [2] = system: BJ; assay: cells; format: functional, cell-based; conditions: Homo sapiens
# [3] = target: T1, G-protein coupled receptor 55 (Homo sapiens, UniProt Q9Y2T6); assay: inhibition of LPI-stimulated GPR55 beta-arrestin translocation – imaging, U2OS, beta-arrestin-GFP, LPI agonist, primary screen (AID 2013); format: functional;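 further: antagonist potency measured as reduced agonist-driven arrestin aggregation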
# T1 sequence (Q9Y2T6 whole entry): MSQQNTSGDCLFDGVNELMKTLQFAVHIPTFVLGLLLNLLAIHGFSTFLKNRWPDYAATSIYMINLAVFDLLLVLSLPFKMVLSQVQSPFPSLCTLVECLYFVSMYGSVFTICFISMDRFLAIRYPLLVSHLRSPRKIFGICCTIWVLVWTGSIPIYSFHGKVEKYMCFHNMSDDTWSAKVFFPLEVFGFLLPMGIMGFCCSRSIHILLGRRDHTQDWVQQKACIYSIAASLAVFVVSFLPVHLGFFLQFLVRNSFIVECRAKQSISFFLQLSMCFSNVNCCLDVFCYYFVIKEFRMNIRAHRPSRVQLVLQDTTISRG
# [4] = system: BJ; assay: BJ-TERT-LT-ST fibroblast viability loss – cell-based, RAS-independent, luminescence, dose response (AID 1935); format: functional; conditions: Homo sapiens;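 further: BJ fibroblasts immortalized with TERT plus LT and ST oncogenes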
# [5] = DRD fibroblast viability loss – cell-based, non-viral oncogenic, luminescence, dose response (AID 1934); format: functional; conditions: Homo sapiens
# [6] = target: T1, G-protein coupled receptor 55; assay: selective activators of receptor GPR55 – imaging, U2OS cells, beta-arrestin-GFP redistribution, primary screen (AID 1961); format: functional
# [7] = target: T2, Replicative DNA helicase DnaB (Mycobacterium tuberculosis, UniProt P9WMR3); assay: DnaB intein splicing inhibitors, dose response, biochemical, cell-free fluorescence (AID 449749); format: functional
# T2 sequence (P9WMR3 whole entry): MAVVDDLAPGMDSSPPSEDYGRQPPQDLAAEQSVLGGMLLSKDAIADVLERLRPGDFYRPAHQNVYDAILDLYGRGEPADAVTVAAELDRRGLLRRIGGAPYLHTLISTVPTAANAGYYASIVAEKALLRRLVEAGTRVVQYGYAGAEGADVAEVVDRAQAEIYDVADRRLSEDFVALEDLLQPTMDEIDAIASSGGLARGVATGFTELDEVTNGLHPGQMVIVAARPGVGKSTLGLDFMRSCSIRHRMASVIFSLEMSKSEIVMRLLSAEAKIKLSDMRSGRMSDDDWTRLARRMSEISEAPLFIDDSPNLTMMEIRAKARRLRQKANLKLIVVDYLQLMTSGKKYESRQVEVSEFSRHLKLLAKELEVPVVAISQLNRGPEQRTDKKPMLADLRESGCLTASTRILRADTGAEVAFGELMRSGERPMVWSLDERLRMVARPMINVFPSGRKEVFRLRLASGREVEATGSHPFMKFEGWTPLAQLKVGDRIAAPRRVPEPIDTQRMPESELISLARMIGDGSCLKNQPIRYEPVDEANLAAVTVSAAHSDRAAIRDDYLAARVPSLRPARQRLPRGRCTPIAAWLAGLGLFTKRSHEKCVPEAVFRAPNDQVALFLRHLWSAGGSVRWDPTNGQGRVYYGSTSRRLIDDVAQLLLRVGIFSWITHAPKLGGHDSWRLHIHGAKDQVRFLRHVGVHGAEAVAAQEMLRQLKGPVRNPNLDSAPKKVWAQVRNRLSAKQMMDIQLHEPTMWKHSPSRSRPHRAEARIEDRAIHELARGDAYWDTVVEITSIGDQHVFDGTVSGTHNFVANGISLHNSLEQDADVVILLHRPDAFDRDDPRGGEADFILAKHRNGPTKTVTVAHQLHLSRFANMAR
# [8] = target: T3, Insulin-degrading enzyme (Homo sapiens, UniProt P14735); assay: recombinant IDE activation, cell-free – biochemical, fluorescence polarization, counter-screen for IDE activator project, dose response (AID 588681)
# T3 sequence (P14735 whole entry): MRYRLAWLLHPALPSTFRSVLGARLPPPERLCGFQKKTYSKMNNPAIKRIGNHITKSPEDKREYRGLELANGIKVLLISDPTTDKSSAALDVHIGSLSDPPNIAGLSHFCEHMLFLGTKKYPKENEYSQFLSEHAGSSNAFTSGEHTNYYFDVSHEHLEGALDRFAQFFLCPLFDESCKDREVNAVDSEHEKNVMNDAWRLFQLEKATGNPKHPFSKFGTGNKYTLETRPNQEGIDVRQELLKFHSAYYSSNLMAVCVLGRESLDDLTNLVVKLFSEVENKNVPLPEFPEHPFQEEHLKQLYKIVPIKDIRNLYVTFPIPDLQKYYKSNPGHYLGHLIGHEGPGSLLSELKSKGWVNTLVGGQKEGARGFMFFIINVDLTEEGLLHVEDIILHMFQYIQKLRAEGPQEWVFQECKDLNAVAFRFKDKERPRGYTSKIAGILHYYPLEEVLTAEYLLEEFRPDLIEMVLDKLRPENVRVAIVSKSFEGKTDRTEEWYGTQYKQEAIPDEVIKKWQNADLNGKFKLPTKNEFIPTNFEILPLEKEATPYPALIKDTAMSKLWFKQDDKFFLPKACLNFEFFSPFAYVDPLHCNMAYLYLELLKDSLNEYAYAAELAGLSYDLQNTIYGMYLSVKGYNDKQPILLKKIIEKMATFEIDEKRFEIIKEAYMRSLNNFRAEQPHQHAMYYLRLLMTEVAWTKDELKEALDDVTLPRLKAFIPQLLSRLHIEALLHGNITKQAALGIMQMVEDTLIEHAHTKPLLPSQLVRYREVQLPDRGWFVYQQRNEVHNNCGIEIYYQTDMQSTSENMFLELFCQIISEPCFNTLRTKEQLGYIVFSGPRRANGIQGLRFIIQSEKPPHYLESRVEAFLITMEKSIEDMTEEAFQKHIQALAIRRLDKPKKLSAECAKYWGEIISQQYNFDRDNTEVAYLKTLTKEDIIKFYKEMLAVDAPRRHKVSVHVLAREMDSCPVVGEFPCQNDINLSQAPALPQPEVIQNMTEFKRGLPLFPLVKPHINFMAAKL
# [9] = system: BJ; assay: growth inhibition of engineered Ras-driven BJ cells – cell-based, alamar blue fluorescence, cherrypicked samples, dose response (AID 2631); format: functional; conditions: Homo sapiens;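 further: confirmatory dose-response assay in RAS-dependent BJ fibroblasts engineered with TERT, LT and ST, with cytotoxicity read by fluorescence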
# [10] = target: T4, Protein RecA (Mycobacterium tuberculosis, UniProt P9WHJ3); assay: Fluorescence Cell-Free Homogeneous Dose Retest to Identify Inhibitors of RecA-Intein Splicing Activity. [Related pubchem assays (depositor defined):AID2097, AID2223, AID489010, AID492950]; format: functional
# T4 sequence (P9WHJ3 whole entry): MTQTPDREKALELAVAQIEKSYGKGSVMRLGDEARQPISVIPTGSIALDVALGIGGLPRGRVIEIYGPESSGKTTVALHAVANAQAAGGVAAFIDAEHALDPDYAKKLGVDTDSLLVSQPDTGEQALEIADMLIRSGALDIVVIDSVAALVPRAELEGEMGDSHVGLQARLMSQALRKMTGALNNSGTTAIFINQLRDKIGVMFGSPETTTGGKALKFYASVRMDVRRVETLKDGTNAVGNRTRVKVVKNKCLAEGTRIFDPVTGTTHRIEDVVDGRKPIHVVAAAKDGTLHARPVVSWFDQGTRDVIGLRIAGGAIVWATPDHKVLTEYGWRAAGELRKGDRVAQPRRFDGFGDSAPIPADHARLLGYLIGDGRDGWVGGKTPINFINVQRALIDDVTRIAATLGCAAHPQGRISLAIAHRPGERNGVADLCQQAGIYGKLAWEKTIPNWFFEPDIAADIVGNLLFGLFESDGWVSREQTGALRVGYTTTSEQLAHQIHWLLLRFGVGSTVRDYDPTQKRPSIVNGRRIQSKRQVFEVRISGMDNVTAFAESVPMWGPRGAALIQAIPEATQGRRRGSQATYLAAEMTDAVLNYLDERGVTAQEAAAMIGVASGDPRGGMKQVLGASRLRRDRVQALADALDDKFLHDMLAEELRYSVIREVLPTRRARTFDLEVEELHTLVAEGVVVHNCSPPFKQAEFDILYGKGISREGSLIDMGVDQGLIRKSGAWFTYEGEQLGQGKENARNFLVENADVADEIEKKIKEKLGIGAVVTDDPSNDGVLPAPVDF
# [11] = target: T3, Insulin-degrading enzyme; assay: cellular IDE activation of Abeta substrate cleavage – fluorescence polarization, HEK cells, dose response (AID 588439); format: functional, cell-based
# [12] = system: Vero; assay: cells; format: functional; conditions: Chlorocebus sabaeus
# [13] = system: HEK293; assay: membrane integrity loss in HEK cells – cell-based, fluorescence, cytotoxicity control for IDE activator project, dose response (AID 588440); format: functional; conditions: Homo sapiens;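 further: cytotoxicity by LDH release measuring loss of membrane integrity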
# [14] = system: HEK293; assay: optical interference in Abeta FP readout, dose response, artefact control for IDE activator project, biochemical, fluorescence polarization (AID 588442); format: functional, cell-based; conditions: Homo sapiens
# [15] = system: HEK293; assay: cells; conditions: Homo sapiens
# [16] = system: HEK293; assay: cells; conditions: Homo sapiens; remark: listed apart in the source
# [17] = target: T5, Short transient receptor potential channel 4 (Mus musculus, UniProt Q9QUQ5); assay: calcium entry via TRPC4 opening agents – cell-based, HEK293 TRPC4/mu-opioid, Fluo-4 calcium, dose response (AID 434937); format: functional
# T5 sequence (Q9QUQ5 whole entry): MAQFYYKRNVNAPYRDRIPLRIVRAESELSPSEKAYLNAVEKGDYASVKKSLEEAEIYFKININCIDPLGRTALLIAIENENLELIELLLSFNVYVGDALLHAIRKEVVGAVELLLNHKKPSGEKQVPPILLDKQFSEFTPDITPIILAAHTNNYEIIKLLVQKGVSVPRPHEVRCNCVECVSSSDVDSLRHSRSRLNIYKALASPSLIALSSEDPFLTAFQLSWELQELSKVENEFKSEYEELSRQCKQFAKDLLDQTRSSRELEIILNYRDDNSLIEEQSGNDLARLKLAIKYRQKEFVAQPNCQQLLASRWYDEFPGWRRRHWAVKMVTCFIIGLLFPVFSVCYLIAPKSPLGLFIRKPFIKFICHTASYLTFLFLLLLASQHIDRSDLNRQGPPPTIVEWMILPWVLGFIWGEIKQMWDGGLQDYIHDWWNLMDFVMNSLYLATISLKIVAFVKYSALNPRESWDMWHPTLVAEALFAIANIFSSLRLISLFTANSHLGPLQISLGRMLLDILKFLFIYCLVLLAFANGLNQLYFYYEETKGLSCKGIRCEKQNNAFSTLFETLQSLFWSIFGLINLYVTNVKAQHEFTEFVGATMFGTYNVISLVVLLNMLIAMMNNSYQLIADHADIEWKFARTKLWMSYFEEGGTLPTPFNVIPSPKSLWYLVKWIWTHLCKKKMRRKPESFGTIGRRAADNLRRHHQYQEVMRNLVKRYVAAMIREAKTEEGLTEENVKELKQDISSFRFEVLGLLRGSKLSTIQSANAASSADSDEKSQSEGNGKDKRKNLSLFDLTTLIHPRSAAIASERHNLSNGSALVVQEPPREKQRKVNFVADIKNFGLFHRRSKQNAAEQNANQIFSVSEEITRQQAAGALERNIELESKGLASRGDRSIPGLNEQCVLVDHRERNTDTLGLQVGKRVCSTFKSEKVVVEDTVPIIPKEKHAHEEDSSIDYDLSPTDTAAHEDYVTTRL
# [18] = target: Delta-type opioid receptor (Homo sapiens, UniProt P41143); assay: Counterscreen for agonists of heterodimerization of the mu 1 (OPRM1) and delta 1 (OPRD1) opioid receptors: Luminescence-based cell-based high throughput dose response assay to identify agonists of OPRD1 homodimerization. [Related pubchem assays (depositor defined):AID504326, AID504355, AID504692, AID504904, AID504905]; format: functional
# Delta-type opioid receptor, sequence (P41143 whole entry): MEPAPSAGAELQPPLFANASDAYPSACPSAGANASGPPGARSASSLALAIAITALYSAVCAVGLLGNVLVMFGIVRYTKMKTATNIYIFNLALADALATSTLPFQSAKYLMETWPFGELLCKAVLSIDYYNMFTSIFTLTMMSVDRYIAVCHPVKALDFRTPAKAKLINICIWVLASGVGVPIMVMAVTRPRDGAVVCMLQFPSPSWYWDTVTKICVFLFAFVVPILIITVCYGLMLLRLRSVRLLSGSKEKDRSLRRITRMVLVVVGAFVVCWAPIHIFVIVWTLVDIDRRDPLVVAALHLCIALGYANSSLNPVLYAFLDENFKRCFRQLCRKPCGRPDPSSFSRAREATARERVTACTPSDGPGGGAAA
# [19] = target: Mu-type opioid receptor (Homo sapiens, UniProt P35372); assay: Counterscreen for agonists of heterodimerization of the mu 1 (OPRM1) and delta 1 (OPRD1) opioid receptors: Luminescence-based cell-based high throughput dose response assay to identify agonists of OPRM1 homodimerization.; format: functional;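 further: U2OS cells expressing OPRM1 and beta-arrestin as split beta-galactosidase partners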
# Mu-type opioid receptor, sequence (P35372 whole entry): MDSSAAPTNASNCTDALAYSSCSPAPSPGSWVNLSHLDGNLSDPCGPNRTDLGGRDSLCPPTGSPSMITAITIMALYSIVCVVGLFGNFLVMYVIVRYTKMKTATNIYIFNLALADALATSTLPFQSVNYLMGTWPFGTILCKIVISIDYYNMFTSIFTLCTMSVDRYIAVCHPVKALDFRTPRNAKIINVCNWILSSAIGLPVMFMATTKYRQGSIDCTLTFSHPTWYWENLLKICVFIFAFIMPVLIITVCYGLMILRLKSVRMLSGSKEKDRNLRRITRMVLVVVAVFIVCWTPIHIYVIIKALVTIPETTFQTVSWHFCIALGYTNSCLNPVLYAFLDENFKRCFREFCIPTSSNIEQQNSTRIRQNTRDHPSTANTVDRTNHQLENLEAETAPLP
# [20] = target: 5-hydroxytryptamine receptor 5A (Homo sapiens, UniProt P47898); assay: Counterscreen for agonists of OPRM1-OPRD1 heterodimerization: luminescence-based cell-based high throughput dose response assay to identify agonists of 5-hydroxytryptamine (serotonin) 5A receptor (HTR5A). [Related pubchem assays (depositor defined):AID504326, AID504355, AID504692, AID504904, AID504905]; format: functional
# 5-hydroxytryptamine receptor 5A, sequence (P47898 whole entry): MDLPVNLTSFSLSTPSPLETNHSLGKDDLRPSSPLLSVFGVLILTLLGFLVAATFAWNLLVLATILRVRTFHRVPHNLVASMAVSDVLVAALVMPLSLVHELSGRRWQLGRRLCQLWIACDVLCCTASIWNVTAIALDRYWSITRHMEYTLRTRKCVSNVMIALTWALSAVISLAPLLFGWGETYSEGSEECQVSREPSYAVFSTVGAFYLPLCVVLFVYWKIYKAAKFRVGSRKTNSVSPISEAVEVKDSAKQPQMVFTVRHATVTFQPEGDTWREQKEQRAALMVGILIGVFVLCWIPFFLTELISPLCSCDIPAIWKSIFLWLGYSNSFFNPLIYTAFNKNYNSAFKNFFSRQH
# [21] = system: A-375; assay: MITF: Counter assay: A375 proliferation Measured in Cell-Based System Using Plate Reader - 2084-03_Inhibitor_Dose_DryPowder_Activity. [Related pubchem assays (depositor defined):AID488944]; format: functional; conditions: Homo sapiens
# [22] = system: A-375; assay: proliferation inhibition in MITF-low A375 cells – cell-based, cherry-pick samples, set 2, counter-screen for MITF modulator project, dose response (AID 540335); format: functional; conditions: Homo sapiens
# [23] = system: Escherichia coli; assay: microbe, parasite or virus in culture
compound,measurement,setting,value
CCOC(=O)c1c(CSC(=N)N)n(-c2ccc(C)cc2)c2cc(Br)c(OC(C)=O)cc12,EC50,[1],5.98 µM (active)
same,EC50,[2],12 µM (inconclusive)
same,IC50,[3],5.03 µM (active)
same,EC50,[4],5.6 µM (active)
same,EC50,[5],9.02 µM (active)
same,EC50,[6],> 32 µM (inactive)
same,AC50,[7],4.79 µM (active)
same,EC50,[8],> 54.7 µM (inactive)
same,EC50,[9],> 133 µM (inactive)
same,EC50,[10],4.25 µM (active)
same,EC50,[11],> 54.7 µM (inactive)
same,CC50,[12],> 25 µM (active)
same,IC50,[13],9.83 µM (active)
same,EC50,[14],> 54.7 µM (inactive)
same,EC50,[15],> 59.7 µM (inactive)
same,EC50,[16],> 59.7 µM (inactive)
COC(=O)NCC(c1ccc2c(c1)OCO2)N1CCN(c2ccccc2)CC1 (stereo not drawn),EC50,[17],0.105 µM (active)
same,EC50,[18],> 92.4 µM (inactive)
same,EC50,[19],17.3 µM (inactive)
same,EC50,[20],> 92.4 µM (inactive)
CCOc1ccc(/N=C(\C)C2=C(O)c3ccccc3C2=O)cc1,AC50,[21],> 35 µM (active)
same,AC50,[22],> 35 µM (active)
c1ccc2c(OCCCN3CCCCCC3)cccc2c1,AC50,[23],19.6 µM (active)
